Source: patent publication US11931397B2, “Methods and compositions for the treatment of Sengers syndrome” (Stealth BioTherapeutics Inc., priority 2018, dated 2024)
Where a SMILES comes first, the peptide text is derived from it. Where no end group is shown, it is not given here. [ ]: non-standard residue; d: D form. Dmt = Cc1cc(O)cc(C)c1C[C@H](N)C(=O)O

Assays:
[1] = tested on: several mammalian cell types; conditions: cited from earlier work
[2] = tested on: patient with a homozygous AGK founder mutation (Sengers syndrome); conditions: approximately six months, 0.25 then 0.50 mg/kg/day intravenous
Experimental: The patient was treated with D-Arg-2′6′-Dmt-Lys-Phe-NH2 for approximately six months through a compassionate care protocol.

[3] = target: mu-opioid receptor (Homo sapiens, UniProt P35372); assay: Mu-opioid receptor agonist activity (stated, no test described); conditions: statement of the description, no test given
Sequence of mu-opioid receptor (P35372 whole entry, species assumed): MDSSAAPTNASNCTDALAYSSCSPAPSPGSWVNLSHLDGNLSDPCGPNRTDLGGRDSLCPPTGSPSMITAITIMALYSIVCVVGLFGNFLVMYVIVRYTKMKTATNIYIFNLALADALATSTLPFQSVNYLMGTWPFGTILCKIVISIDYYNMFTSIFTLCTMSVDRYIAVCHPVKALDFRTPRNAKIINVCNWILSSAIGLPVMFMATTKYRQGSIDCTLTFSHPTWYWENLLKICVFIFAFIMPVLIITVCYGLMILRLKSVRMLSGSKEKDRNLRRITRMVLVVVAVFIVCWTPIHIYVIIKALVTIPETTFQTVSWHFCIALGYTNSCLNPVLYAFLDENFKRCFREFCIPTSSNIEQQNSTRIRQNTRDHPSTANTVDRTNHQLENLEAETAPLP

2′, 6′-Dmt-D-Arg-Phe-Lys-NH2
Penetration of the plasma membrane [1]: readily penetrates the plasma membrane of several mammalian cell types in an energy-independent manner

Cc1cc(O)cc(C)c1C[C@H](NC(=O)[C@H](N)CCCNC(=N)N)C(=O)N[C@@H](CCCCN)C(=O)N[C@@H](Cc1ccccc1)C(N)=O [D-Arg-2′6′-Dmt-Lys-Phe-NH2] (H-[dR][Dmt]KF-NH2)
Side effects attributable to treatment [2]: no discernable side effects

F[dR]FK-NH2
mu-opioid receptor agonist activity [3]: does not have mu-opioid receptor agonist activity

Tyr-D-Arg-Phe-Lys-NH2
mu-opioid receptor agonist activity [3]: has mu-opioid receptor agonist activity
